From patent US8959984B2, “Proteome-wide quantification of small molecule binding to cellular target proteins” (priority 2007, dated 2015)
Read-outs that look alike come from different tables or passages of the source.

Key:
PARVA (IPI00018963) = experiment: binding to VI16742 beads (HeLa lysate, SILAC MS); design: species or system human
Source text: (§1) In an alternative implementation of the chemical proteomic approach according to the invention, the broadly-selective pyrido[2,3-d]pyrimidine-based kinase inhibitor VI16742 has been used for affinity capture (FIG. 10a). […] As shown by gene ontology analysis, the corresponding molecular functions were highly over-represented in proteins specifically retained by the inhibitor resin (FIG. 10b).

LIMS1 (IPI00788612) = experiment: binding to VI16742 beads (HeLa lysate, SILAC MS); design: species or system human
Source text: as §1

RSU1 (IPI00847168) = experiment: binding to VI16742 beads (HeLa lysate, SILAC MS); design: species or system human
Source text: as §1

CCNH (IPI00021305) = experiment: binding to VI16742 beads (HeLa lysate, SILAC MS); design: species or system human
Source text: as §1

CCNK (IPI00783214) = experiment: binding to VI16742 beads (HeLa lysate, SILAC MS); design: species or system human
Source text: as §1

WDR68 (IPI00006754) = experiment: binding to VI16742 beads (HeLa lysate, SILAC MS); design: species or system human
Source text: as §1

ERCC2 (IPI00029728) = experiment: binding to VI16742 beads (HeLa lysate, SILAC MS); design: species or system human
Source text: as §1

EphA2 = EphA2 (Homo sapiens, UniProt P29317); experiment: binding to immobilized V16742 (IVA1/IVA2, HeLa lysate, MS)
Sequence of EphA2 (P29317 24-976): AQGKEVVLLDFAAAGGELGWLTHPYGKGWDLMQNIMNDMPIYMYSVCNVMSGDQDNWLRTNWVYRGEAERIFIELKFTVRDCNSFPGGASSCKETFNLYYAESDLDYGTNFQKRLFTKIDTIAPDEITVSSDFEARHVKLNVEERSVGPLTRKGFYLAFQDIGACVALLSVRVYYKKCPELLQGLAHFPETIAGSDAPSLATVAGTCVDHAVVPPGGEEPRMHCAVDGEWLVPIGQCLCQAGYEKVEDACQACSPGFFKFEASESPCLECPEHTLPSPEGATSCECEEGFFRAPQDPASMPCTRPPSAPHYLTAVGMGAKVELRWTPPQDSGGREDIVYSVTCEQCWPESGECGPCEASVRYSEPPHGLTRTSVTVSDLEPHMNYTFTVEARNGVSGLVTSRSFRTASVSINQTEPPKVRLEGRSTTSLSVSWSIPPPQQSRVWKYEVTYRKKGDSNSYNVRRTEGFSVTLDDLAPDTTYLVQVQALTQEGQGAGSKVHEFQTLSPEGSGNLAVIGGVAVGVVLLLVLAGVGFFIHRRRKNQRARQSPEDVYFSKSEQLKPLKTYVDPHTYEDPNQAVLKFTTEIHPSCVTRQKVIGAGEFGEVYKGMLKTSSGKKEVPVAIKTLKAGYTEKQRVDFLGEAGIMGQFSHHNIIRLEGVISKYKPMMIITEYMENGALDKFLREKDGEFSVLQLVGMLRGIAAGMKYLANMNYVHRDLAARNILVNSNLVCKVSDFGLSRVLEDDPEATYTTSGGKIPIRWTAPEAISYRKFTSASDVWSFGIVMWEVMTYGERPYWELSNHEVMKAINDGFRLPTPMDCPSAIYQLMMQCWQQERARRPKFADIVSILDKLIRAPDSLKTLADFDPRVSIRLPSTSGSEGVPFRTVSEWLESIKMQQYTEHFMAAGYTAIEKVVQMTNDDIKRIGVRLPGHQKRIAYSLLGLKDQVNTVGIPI

[1] = biological target: T1, Testis expressed sequence 264 protein precursor (Homo sapiens, UniProt Q9Y6I9); experiment: as above
T1 construct: endogenous in cells; host or cells: HeLa S3
T1 sequence (Q9Y6I9 1-313): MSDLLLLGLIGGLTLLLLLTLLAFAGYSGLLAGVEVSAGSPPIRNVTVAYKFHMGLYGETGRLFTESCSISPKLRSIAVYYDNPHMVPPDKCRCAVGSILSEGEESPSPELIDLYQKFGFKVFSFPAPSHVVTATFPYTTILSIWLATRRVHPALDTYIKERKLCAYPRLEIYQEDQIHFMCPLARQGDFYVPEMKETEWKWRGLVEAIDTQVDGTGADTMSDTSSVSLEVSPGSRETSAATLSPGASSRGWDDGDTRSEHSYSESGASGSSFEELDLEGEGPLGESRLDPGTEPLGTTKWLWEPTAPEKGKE

MASTL = biological target: T2, MASTL (Homo sapiens, UniProt Q96GX5); experiment: as above
T2 construct: endogenous in cells; host or cells: HeLa S3
T2 sequence (Q96GX5 1-879): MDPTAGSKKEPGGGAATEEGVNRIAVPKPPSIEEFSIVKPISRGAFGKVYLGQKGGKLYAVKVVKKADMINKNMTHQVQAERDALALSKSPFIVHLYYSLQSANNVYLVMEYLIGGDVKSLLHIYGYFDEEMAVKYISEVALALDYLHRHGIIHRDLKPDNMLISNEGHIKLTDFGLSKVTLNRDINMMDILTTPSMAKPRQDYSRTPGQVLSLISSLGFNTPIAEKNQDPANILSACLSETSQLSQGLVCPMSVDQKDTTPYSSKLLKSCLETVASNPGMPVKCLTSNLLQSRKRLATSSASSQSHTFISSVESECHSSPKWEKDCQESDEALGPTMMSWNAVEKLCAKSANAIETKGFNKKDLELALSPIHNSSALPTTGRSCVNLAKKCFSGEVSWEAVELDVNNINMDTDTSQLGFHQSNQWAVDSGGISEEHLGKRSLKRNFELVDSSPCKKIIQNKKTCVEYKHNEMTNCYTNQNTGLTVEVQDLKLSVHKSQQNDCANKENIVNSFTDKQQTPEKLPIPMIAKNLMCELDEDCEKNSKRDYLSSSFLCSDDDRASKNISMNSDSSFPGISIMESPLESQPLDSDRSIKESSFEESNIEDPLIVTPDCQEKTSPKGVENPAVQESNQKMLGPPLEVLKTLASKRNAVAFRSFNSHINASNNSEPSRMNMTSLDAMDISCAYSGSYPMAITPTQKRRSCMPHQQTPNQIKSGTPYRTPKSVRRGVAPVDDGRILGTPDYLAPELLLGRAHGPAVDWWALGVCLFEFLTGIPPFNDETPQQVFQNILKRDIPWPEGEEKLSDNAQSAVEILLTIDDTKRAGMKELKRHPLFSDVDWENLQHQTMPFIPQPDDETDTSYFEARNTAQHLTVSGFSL

RPL7 = RPL7 (Homo sapiens, UniProt P18124)
NAMPT = NAMPT (Homo sapiens, UniProt P43490)
Sequence of NAMPT (P43490 whole entry): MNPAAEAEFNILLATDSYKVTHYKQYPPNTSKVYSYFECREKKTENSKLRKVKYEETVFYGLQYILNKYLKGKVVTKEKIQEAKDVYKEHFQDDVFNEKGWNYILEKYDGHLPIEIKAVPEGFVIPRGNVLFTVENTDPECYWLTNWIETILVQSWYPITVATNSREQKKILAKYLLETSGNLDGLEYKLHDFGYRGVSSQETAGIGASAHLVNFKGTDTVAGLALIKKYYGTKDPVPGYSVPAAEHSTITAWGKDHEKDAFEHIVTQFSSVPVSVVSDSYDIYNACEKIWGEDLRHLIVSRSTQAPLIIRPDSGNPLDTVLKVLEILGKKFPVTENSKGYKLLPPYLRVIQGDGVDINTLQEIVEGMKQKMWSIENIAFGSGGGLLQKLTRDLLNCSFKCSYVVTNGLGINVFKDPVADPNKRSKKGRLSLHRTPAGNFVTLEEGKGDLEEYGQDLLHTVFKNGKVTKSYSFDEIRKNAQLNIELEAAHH

[2] = control beads vs first incubation

For CC(C)n1c(=O)ccc2cnc(Nc3ccc(OCCN)cc3)nc21 [V16742], the “rAVERAGE (CTRL/1 INC)” value (PARVA (IPI00018963); [2]) was 0.06, the Ki (PARVA (IPI00018963); immobilized VI16742) was 155 µM and the “rAVERAGE (2 INC/1 INC)” value (PARVA (IPI00018963); second vs first incubation) was 0.75. The “rAVERAGE (CTRL/1 INC)” value (LIMS1 (IPI00788612); [2]) was 0.04, the Ki (LIMS1 (IPI00788612); immobilized VI16742) was 143 µM and the “rAVERAGE (2 INC/1 INC)” value (LIMS1 (IPI00788612); second vs first incubation) was 0.73. The “r (5 h/2.5 h INC. TIME)” value (RSU1 (IPI00847168); 5 h vs 2.5 h incubation time) was 1.34, the “rAVERAGE (CTRL/1 INC)” value (RSU1 (IPI00847168); [2]) was 0.07 and the Ki (RSU1 (IPI00847168); immobilized VI16742) was 216 µM. For the same compound, the “rAVERAGE (2 INC/1 INC)” value (RSU1 (IPI00847168); second vs first incubation) was 0.81, the “rAVERAGE (CTRL/1 INC)” value (CCNH (IPI00021305); [2]) was 0.05 and the Ki (CCNH (IPI00021305); immobilized VI16742) was 96.9 µM. The “rAVERAGE (2 INC/1 INC)” value (CCNH (IPI00021305); second vs first incubation) was 0.65, the “r (3 MG/1 MG LYSATE)” value (CCNK (IPI00783214); 3 mg vs 1 mg lysate) was 3.84 and the “r (5 h/2.5 h INC. TIME)” value (CCNK (IPI00783214); 5 h vs 2.5 h incubation time) was 1.27. The “rAVERAGE (CTRL/1 INC)” value (CCNK (IPI00783214); [2]) was 0.12, the Ki (CCNK (IPI00783214); immobilized VI16742) was 120 µM and the “rAVERAGE (2 INC/1 INC)” value (CCNK (IPI00783214); second vs first incubation) was 0.70. The “r (3 MG/1 MG LYSATE)” value (WDR68 (IPI00006754); 3 mg vs 1 mg lysate) was 2.58, the “r (5 h/2.5 h INC. TIME)” value (WDR68 (IPI00006754); 5 h vs 2.5 h incubation time) was 1.31 and the “rAVERAGE (CTRL/1 INC)” value (WDR68 (IPI00006754); [2]) was 0.17. For the same compound, the Ki (WDR68 (IPI00006754); immobilized VI16742) was 249 µM, the “rAVERAGE (2 INC/1 INC)” value (WDR68 (IPI00006754); second vs first incubation) was 0.83 and the “rAVERAGE (CTRL/1 INC)” value (ERCC2 (IPI00029728); [2]) was 0.17. For the same compound, the Ki (ERCC2 (IPI00029728); immobilized VI16742) was 118 µM, the “rAVERAGE (2 INC/1 INC)” value (ERCC2 (IPI00029728); second vs first incubation) was 0.69 and the Kd (EphA2) was 58.1 µM. For the same compound, the “Percent bound at various 16742 conc” value (EphA2; EphA2, Experiment 1, 1.87 μM 16742) was 3.91%, the “Percent bound at various 16742 conc” value (EphA2; EphA2, Experiment 1, 8.74 μM 16742) was 13.88% and the “Percent bound at various 16742 conc” value (EphA2; EphA2, Experiment 1, 52 μM 16742) was 54.66%. The “Percent bound at various 16742 conc” value (EphA2; EphA2, Experiment 2, 1.87 μM 16742) was 2.12%, the “Percent bound at various 16742 conc” value (EphA2; EphA2, Experiment 2, 8.74 μM 16742) was 7.66% and the “Percent bound at various 16742 conc” value (EphA2; EphA2, Experiment 2, 52 μM 16742) was 43.73%. For the same compound, the Kd (EphA2; Kd, EphA2, Experiment 1) was 45.3 µM, the Kd (EphA2; Kd, EphA2, Experiment 2) was 70.8 µM and the “Percent bound at various 16742 conc” value ([1]; Experiment 1, 1.87 μM 16742) was 2.22%. For the same compound, the “Percent bound at various 16742 conc” value ([1]; Experiment 1, 8.74 μM 16742) was 2.55%, the “Percent bound at various 16742 conc” value ([1]; Experiment 1, 52 μM 16742) was 51.05% and the Kd ([1]; Experiment 1, read-out: Kd) was 60 µM. The “Percent bound at various 16742 conc” value ([1]; Experiment 2, 1.87 μM 16742) was 2.11%, the “Percent bound at various 16742 conc” value ([1]; Experiment 2, 8.74 μM 16742) was 1.91% and the “Percent bound at various 16742 conc” value ([1]; Experiment 2, 52 μM 16742) was 24.69%. The Kd ([1]; Experiment 2, read-out: Kd) was 165 µM, the Kd ([1]; average of two experiments, read-out: Kd Avg) was 113 µM and the “Percent bound at various 16742 conc” value (MASTL; Experiment 1, 1.87 μM 16742) was 0.55%. The “Percent bound at various 16742 conc” value (MASTL; Experiment 1, 8.74 μM 16742) was 9.59%, the “Percent bound at various 16742 conc” value (MASTL; Experiment 1, 52 μM 16742) was 51.63% and the “Percent bound at various 16742 conc” value (MASTL; Experiment 2, 52 μM 16742) was 62.29%. The Kd (MASTL; single Kd value, obtained from only one experiment) was 53.8 µM.
COc1cc2ncnc(Nc3ccc(F)c(Cl)c3)c2cc1OCCCN1CCOCC1 [gefitinib] was tested, and the “rAVERAGE (10 nM/0 nM Gef.)” value (RPL7) was 0.84, the “rAVERAGE (100 nM/0 nM Gef.)” value (RPL7) was 1.08 and the “rAVERAGE (1000 nM/0 nM Gef.)” value (RPL7) was 0.86. For the same compound, the “rAVERAGE (10000 nM/0 nM Gef.)” value (RPL7) was 0.98, the “rAVERAGE (10 nM/0 nM Gef.)” value (NAMPT) was 0.71 and the “rAVERAGE (100 nM/0 nM Gef.)” value (NAMPT) was 0.74. The “rAVERAGE (1000 nM/0 nM Gef.)” value (NAMPT) was 0.73 and the “rAVERAGE (10000 nM/0 nM Gef.)” value (NAMPT) was 0.92.
